Experiments:
Experiment in all cases: relative viability (nuclei count vs DMSO), 5 days (fraction); higher = more cells survive
GSK126 + Trametinib = compound: CC[C@H](C)N1C=C(C2=C(C=C(C=C21)C3=CN=C(C=C3)N4CCNCC4)C(=O)NCC5=C(C=C(NC5=O)C)C)C [GSK126] + CC(=O)Nc1cccc(-n2c(=O)n(C3CC3)c(=O)c3c(Nc4ccc(I)cc4F)n(C)c(=O)c(C)c32)c1 [Trametinib] (partner 0.02 µM)
Outline: (§1)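 Medians of duplicate plates are given as relative viability. That measure is the nuclei count in treated wells divided by the count in vehicle wells. Counts were taken on 4× images of lung cancer cell lines in 1536-well plates, 5 days after pin-tool dosing the day after seeding with one drug alone or a fixed anchor-drug dose plus five library-drug doses (not always all listed) in √10 steps.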

MLN4924 + Luminespib = compound: NS(=O)(=O)OC[C@@H]1C[C@@H](n2ccc3c(N[C@H]4CCc5ccccc54)ncnc32)C[C@@H]1O [MLN4924] + CCNC(=O)c1noc(-c2cc(C(C)C)c(O)cc2O)c1-c1ccc(CN2CCOCC2)cc1 [Luminespib] (partner 0.01 µM)
Outline: as §1

GSK126 + Alpelisib = compound: CC[C@H](C)N1C=C(C2=C(C=C(C=C21)C3=CN=C(C=C3)N4CCNCC4)C(=O)NCC5=C(C=C(NC5=O)C)C)C [GSK126] + Cc1nc(NC(=O)N2CCC[C@H]2C(N)=O)sc1-c1ccnc(C(C)(C)C(F)(F)F)c1 [Alpelisib] (partner 2 µM)
Outline: as §1

[1] = compound: C1CC(C1)(C(=O)O)C(=O)O.[NH2-].[NH2-].[Pt+2] [Carboplatin] + CC(=O)c1c(C)c2cnc(Nc3ccc(N4CCNCC4)cn3)nc2n(C2CCCC2)c1=O [Palbociclib] (partner 0.5 µM)
Outline: as §1

| Cell Line | relative viability (GSK126 + Trametinib; first compound 0.08 µM) | relative viability (GSK126 + Trametinib; first compound 0.253 µM) | relative viability (GSK126 + Trametinib; first compound 0.8 µM) | relative viability (GSK126 + Trametinib; first compound 2.53 µM) | relative viability (GSK126 + Trametinib; first compound 8 µM) | relative viability (MLN4924 + Luminespib; first compound 0.04 µM) | relative viability (MLN4924 + Luminespib; first compound 0.1265 µM) | relative viability (MLN4924 + Luminespib; first compound 0.4 µM) | relative viability (MLN4924 + Luminespib; first compound 1.265 µM) | relative viability (MLN4924 + Luminespib; first compound 4 µM) | relative viability (GSK126 + Alpelisib; first compound 0.08 µM) | relative viability (GSK126 + Alpelisib; first compound 0.253 µM) | relative viability (GSK126 + Alpelisib; first compound 0.8 µM) | relative viability (GSK126 + Alpelisib; first compound 2.53 µM) | relative viability (GSK126 + Alpelisib; first compound 8 µM) | relative viability ([1]; first compound 0.08 µM) | relative viability ([1]; first compound 0.253 µM) | relative viability ([1]; first compound 0.8 µM) | relative viability ([1]; first compound 2.53 µM) | relative viability ([1]; first compound 8 µM) |
| --- | --- | --- | --- | --- | --- | --- | --- | --- | --- | --- | --- | --- | --- | --- | --- | --- | --- | --- | --- | --- |
| NCI-H727 | 0.4 | 0.4 | 0.424 | 0.39 | 0.412 | 0.31 | 0.382 | 0.368 | 0.383 | 0.235 | 0.649 | 0.493 | 0.643 | 0.636 | 0.704 | 0.732 | 0.668 | 0.726 | 0.573 | 0.591 |
| NCI-H2170 | 1.05 | 0.964 | 0.893 | 0.891 | 1.03 | 0.631 | 0.443 | 0.269 | 0.172 | 0.147 | 0.932 | 0.852 | 0.839 | 0.795 | 0.745 | 0.39 | 0.411 | 0.384 | 0.379 | 0.342 |
| EKVX | 0.377 | 0.446 | 0.354 | 0.362 | 0.268 | 0.943 | 0.756 | 0.682 | 0.257 | 0.166 | 0.961 | 0.92 | 0.819 | 0.813 | 0.746 | 0.364 | 0.513 | 0.385 | 0.354 | 0.341 |
| NCI-H1437 | 0.507 | 0.528 | 0.494 | 0.459 | 0.501 | 0.783 | 1.05 | 0.811 | 0.626 | 0.226 | 1.07 | 0.934 | 0.869 | 0.824 | 0.993 | 0.302 | 0.316 | 0.273 | 0.272 | 0.31 |
| PC-3 [JPC-3] | 0.763 | 0.694 | 0.693 | 0.66 | 0.634 | 0.799 | 0.773 | 0.552 | 0.346 | 0.327 | 1.04 | 1.13 | 1.05 | 1.02 | 1.07 | 0.537 | 0.577 | 0.511 | 0.526 | 0.512 |
| LK-2 | 0.861 | 0.817 | 0.779 | 0.857 | 0.575 | 0.234 | 0.173 | 0.192 | 0.212 | 0.182 | 1.09 | 0.993 | 0.734 | 1.13 | 0.876 | 0.619 | 0.824 | 0.796 | 0.789 | 0.658 |
| NCI-H1651 | 0.794 | 0.86 | 0.811 | 0.844 | 0.866 | 0.725 | 0.745 | 0.607 | 0.315 | 0.224 | 1.13 | 0.946 | 0.933 | 0.938 | 0.936 | 0.514 | 0.488 | 0.507 | 0.498 | 0.413 |
